This is an account of results in patent publication US20240010726A1, “LFA-1 SIGNALLING MEDIATOR FOR USE IN CANCER THERAPY” (Universität Basel, priority 2020, published 2024).

SMILES strings stand for the structures.

The test system of one experiment is human EM CD8 T cells. Nature of the experiment: Metabolic flux analysis, glycolytic switch of EM CD8 T cells. The format is cell-based. The method, then:
FIG. 2: Extracellular magnesium promotes memory-specific activation via LFA-1. Glycolytic switch of human EM CD8 T cells (a) and naïve CD8 T cells (b) subsets upon injection of anti-CD3 Ab only, or anti-CD3 and anti-CD28 Ab, was assessed by metabolic flux analysis in medium containing either 1.2 mM Mg^2+, 0 mM Mg^2+, or medium which was reconstituted from 0 mM to 1.2 mM Mg^2+ immediately prior to activation (0→1.2 mM Mg^2+). (a) Results for human effector memory (EM) and (b) for human naïve CD8 T cells. Glycolytic switch was quantified by subtracting […] measurements. (c) Flow cytometric analysis of surface activation markers on human EM CD8 T cells 24 hours after activation by plate-bound anti-CD3 Ab and soluble anti-CD28 Ab, in 1.2 mM and 0 mM Mg^2+ media, respectively. (d) Abundance of inflammatory cytokines in corresponding EM CD8 T cell culture supernatants, determined by CBA. (e) CD11a (LFA-1) surface expression on human naïve and EM CD8 T cells as well PHA T cell blasts. Flow cytometry-based assessment of total LFA-1 expression assessed by mAb TS2/4 (f), closed conformation of αL by mAb HI111 (g), extended conformation of LFA-1 by mAb Kim127 (h), open head-piece conformation of LFA-1 by mAb m24 (i), phosphorylation of focal adhesion kinase (FAK) […] as well TNF expression (k)±TCR-induced activation in different extracellular Mg^2+ concentrations. (l) Flow cytometry-based assessment of LFA-1 with open-head piece conformation on human EM and naïve CD8 T cells using the open head-piece reporter mAb m24. (m) Assessment of glycolytic switch of EM CD8 T cells. (n) Assessment of glycolytic switch of naïve CD8 T cells. […] FIG. 4: […] Pooled results from n=6 healthy donors from 3 independent experiments. (b) CD69 expression of PHA T cell blasts upon activation with indicated concentrations of plate-bound anti-CD3 mAb in ±Mg^2+ containing medium. […] Cytotoxicity was quantified after adding luciferin to medium and measuring luminescent signal intensity. […] Cytotoxicity was quantified after adding luciferin to medium and measuring luminescent signal intensity. […]

For the next experiment, the system named is human naïve CD8 T cells. Nature of the experiment: Metabolic flux analysis, glycolytic switch of naïve CD8 T cells. The format is cell-based. To be noted: anti-CD3 or anti-CD3/anti-CD28 Ab; 0 mM vs 1.2 mM Mg^2+. The method, then:
FIG. 2: Extracellular magnesium promotes memory-specific activation via LFA-1. Glycolytic switch of human EM CD8 T cells (a) and naïve CD8 T cells (b) subsets upon injection of anti-CD3 Ab only, or anti-CD3 and anti-CD28 Ab, was assessed by metabolic flux analysis in medium containing either 1.2 mM Mg^2+, 0 mM Mg^2+, or medium which was reconstituted from 0 mM to 1.2 mM Mg^2+ immediately prior to activation (0→1.2 mM Mg^2+). (a) Results for human effector memory (EM) and (b) for human naïve CD8 T cells. Glycolytic switch was quantified by subtracting […] measurements. (c) Flow cytometric analysis of surface activation markers on human EM CD8 T cells 24 hours after activation by plate-bound anti-CD3 Ab and soluble anti-CD28 Ab, in 1.2 mM and 0 mM Mg^2+ media, respectively. (d) Abundance of inflammatory cytokines in corresponding EM CD8 T cell culture supernatants, determined by CBA. (e) CD11a (LFA-1) surface expression on human naïve and EM CD8 T cells as well PHA T cell blasts. Flow cytometry-based assessment of total LFA-1 expression assessed by mAb TS2/4 (f), closed conformation of αL by mAb HI111 (g), extended conformation of LFA-1 by mAb Kim127 (h), open head-piece conformation of LFA-1 by mAb m24 (i), phosphorylation of focal adhesion kinase (FAK) […] as well TNF expression (k)±TCR-induced activation in different extracellular Mg^2+ concentrations. […]

Turning to `[Mg+2]` [Mg^2+, Magnesium], in the experiment on human EM CD8 T cells (anti-CD3/anti-CD28 Ab plus secondary cross-linking Ab, 0 mM, 1.2 mM, 0→1.2 mM Mg^2+), the “Glycolytic switch of EM CD8^+ T cells upon supra-physiologic activation” value is “lost”. The “Glycolytic switch (ECAR) of EM CD8 T cells” value with human EM CD8 T cells (anti-CD3 or anti-CD3/anti-CD28 Ab, 0 mM vs 1.2 mM Mg^2+) was “blunted”. For the same molecule, the “Glycolytic switch (ECAR) of EM CD8 T cells after Mg^2+ add-back” value in the experiment with human EM CD8 T cells (medium reconstituted 0→1.2 mM Mg^2+ immediately prior to activation) was “fully revertible”. Moreover, the “Glycolytic switch (ECAR) of naïve CD8 T cells” value in the experiment with human naïve CD8 T cells is recorded as “no impaired activation-induced upregulation of glycolysis”.
